Measured values: patent US20250243194A1, “ANTAGONIST OF ADENOSINE RECEPTORS” (AdoRx Therapeutics Limited, priority 2022, published 2025)
pIC50, pKi: −log10 of the molar value. Where two headings read alike, the source gives them in different places.

Assays:
[1] = tested on: CD8+ T cells in human whole blood; experiment: Measurement of pCREB in CD8+ T cells in human whole blood; type: cell-based; settings: T-cell, 3 μM NECA, rolipram, FACS
Experimental: Heparinised human whole blood was pre-incubated at 37° C. with serial dilutions of A2a antagonists for 20 min. and the phosphodiesterase inhibitor rolipram to amplify the pCREB response. The adenosine receptor agonist NECA is then added at a final concentration of 3 μM and following a 60 min incubation the blood is fixed and red blood cells lysed. White blood cells are isolated, permeabilized and stained with directly conjugated fluorescent antibodies to phospho-CREB (Alexa Fluor 488) and CD8 (Alexa Fluor 647) and the level of phospho-CREB in CD8+ T cells is measured by FACS using a BD Accuri C6 Flow Cytometer.

[2] = molecular target: human Adenosine A2a receptor (Homo sapiens (Human), UniProt P29274); experiment: Adenosine receptor TR-FRET binding assay (A2a)
How it was run: (§1)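 Compounds incubated 2 h at room temperature with membranes from CHO cells expressing terbium-labelled human receptors, competing with the fluorescent antagonist CA200645 (30 nM for A2b; 100 nM for A1, A2a and A3). Read by TR-FRET (665/620 nm); non-specific binding defined with 10 μM XAC. Ki derived from IC50 via Cheng-Prusoff.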

[3] = molecular target: human Adenosine A1 receptor (Homo sapiens (Human), UniProt P30542); experiment: Adenosine receptor TR-FRET binding assay (A1)
How it was run: as §1

[4] = tested on: immature monocyte-derived dendritic cells (MoDC); experiment: MoDC pCREB assay; type: cell-based; settings: Homo sapiens, Dendritic cell, CD209+/CD86-low cells, 1 μM NECA, 20 μM rolipram, largely specific to A2B
Experimental: Monocytes are isolated from human whole blood using CD14 microbeads (Miltenyi Biotec 130-050-201) and differentiated to immature monocyte-derived dendritic cells (MoDC) by culture for 5 days in Mo-DC Differentiation Medium (Miltenyi Biotec 130-094-812). MoDCs are seeded into fresh medium into U bottomed 96 well culture plates and pre-incubated at 37° C. with serial dilutions of A2A/B antagonists for 15 min. At the same time the cells are co-incubated with the phosphodiesterase inhibitor rolipram (final concentration of 20 μM) to amplify the subsequent pCREB response. Adenosine receptor agonist NECA is then added at 1 μM final concentration, leading to an increase in CREB phosphorylation. Following a 45 min incubation at 37° C., the cells are fixed, permeabilized and stained with directly conjugated fluorescent antibodies to phospho-CREB (Alexa Fluor 488), CD209 (PerCP-Cy5.5) and CD86 (APC). Samples are analysed by FACS to measure fluorescence in corresponding channels, and also forward and Side scatter. The population of CD209+/CD86-low cells corresponding to immature dendritic cells is gated for analysis of pCREB levels.
Approximately 5% of the analysed cells are positive for detection of pCREB in the absence of agonist stimulation, representing the background signalling of all pathways upstream of CREB. Following NECA stimulation this is increased to ˜80% pCREB+ve, and this increase is essentially fully reversible by A2B or dual A2A/B antagonists.
IC50 is represented as the point of inflection of a sigmoidal curve

[5] = molecular target: human Adenosine A2b receptor (Homo sapiens (Human), UniProt P29275); experiment: Adenosine receptor TR-FRET binding assay (A2b); settings: inhibition of binding of 30 nM CA200645; CHO cell membranes; Ki from IC50 by Cheng and Prusoff
How it was run: as §1

human PBMCs = experiment: CD3/CD28 stimulated IL-2 release NECA reversal assay in human PBMCs; type: cell-based; settings: PBMC, reversal of 1 uM NECA, 24 hours
Experimental: Blood is drawn from healthy volunteers using sodium citrate as the anticoagulant (0.3% final concentration). After centrifugation of the blood over Histopaque-1077, PBMCs are collected from the Histopaque/plasma interface and washed twice in PBS (300 g for 10 mins at room temp). Cells are plated at 50,000 cells/well in 150 μl RPMI/10% FCS in 96-well cell culture plates that have been precoated with 1 μg/ml CD3 antibody. 50 μl diluted compound mix is added to the cells, to obtain final concentrations of 1 μg/ml CD28 antibody, 1 uM NECA and 0.003-10 μM adenosine receptor antagonist. Assay plates are incubated for 24 hours at 37° C. in a humidified incubator. Culture supernatant is tested for IL-2 levels using the human IL-2 Tissue Culture Kit (Meso Scale Discovery).

[6] = inhibition of binding of 100 nM CA200645, CHO cell membranes, Ki from IC50 by Cheng and Prusoff

human Adenosine A2b receptor, sequence (P29275 whole entry): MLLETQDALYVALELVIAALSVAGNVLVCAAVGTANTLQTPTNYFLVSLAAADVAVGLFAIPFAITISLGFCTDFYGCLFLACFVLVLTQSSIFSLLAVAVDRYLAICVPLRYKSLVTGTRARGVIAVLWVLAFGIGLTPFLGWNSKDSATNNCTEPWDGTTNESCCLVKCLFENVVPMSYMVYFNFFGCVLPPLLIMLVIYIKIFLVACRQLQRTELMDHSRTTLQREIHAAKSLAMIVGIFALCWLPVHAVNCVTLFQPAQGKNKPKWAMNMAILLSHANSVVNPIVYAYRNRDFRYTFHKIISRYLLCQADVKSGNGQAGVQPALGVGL
human Adenosine A2a receptor, sequence (P29274 whole entry): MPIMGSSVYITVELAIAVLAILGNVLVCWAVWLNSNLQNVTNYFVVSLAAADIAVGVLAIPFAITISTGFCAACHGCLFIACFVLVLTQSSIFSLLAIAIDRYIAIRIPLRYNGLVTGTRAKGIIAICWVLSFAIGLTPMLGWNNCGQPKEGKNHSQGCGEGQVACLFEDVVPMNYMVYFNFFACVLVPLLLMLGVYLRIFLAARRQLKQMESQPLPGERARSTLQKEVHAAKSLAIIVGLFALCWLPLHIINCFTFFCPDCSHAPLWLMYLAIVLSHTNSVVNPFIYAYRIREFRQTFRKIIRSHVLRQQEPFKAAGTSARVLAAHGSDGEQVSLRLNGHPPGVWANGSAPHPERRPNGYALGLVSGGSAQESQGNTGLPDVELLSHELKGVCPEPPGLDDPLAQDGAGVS
human Adenosine A1 receptor, sequence (P30542 whole entry): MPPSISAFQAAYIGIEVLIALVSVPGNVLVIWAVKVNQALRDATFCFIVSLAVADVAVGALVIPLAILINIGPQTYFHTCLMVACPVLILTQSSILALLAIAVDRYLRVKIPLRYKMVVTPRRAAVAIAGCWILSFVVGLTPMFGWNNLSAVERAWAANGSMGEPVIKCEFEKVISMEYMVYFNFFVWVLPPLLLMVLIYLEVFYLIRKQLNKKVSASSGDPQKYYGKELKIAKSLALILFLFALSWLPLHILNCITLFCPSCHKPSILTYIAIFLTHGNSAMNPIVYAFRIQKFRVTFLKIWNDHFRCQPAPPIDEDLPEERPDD

pIC50 [1]	pKi [2]	pKi [3]	pIC50 [4]	pKi [5]	pKi [2, 6]	pKi [3, 6]	SMILES	pIC50 (human PBMCs)
7.22			8.40	8.19	8.74	6.46	Cc1ncnc2ccc(-c3sc(NC(=O)N4CC5(CN(C)C5)C4)nc3-c3cccc(C#N)c3)cc12 [Example 7.4, N-[4-(3-Cyanophenyl)-5-(4-methylquinazolin-6-yl)thiazol-2-yl]-6-methyl-2,6-diazaspiro[3.3]heptane-2-carboxamide]	8.52
8.40			8.70	8.72	9.70	7.89	Cc1ncnc2ccc(-c3sc(NC(=O)N4CCC5(CC4)CNC(=O)C5)nc3-c3cccc(C#N)c3)cc12 [Example 7.17, N-[4-(3-Cyanophenyl)-5-(4-methylquinazolin-6-yl)thiazol-2-yl]-3-oxo-2,8-diazaspiro[4.5]decane-8-carboxamide]	8.96
7.52			8.52	8.96	9.89	8.00	Cc1ncnc2ccc(-c3sc(NC(=O)N4CCC5(CCC(=O)N5)CC4)nc3-c3cccc(C#N)c3)cc12 [Example 7.23, N-[4-(3-Cyanophenyl)-5-(4-methylquinazolin-6-yl)thiazol-2-yl]-2-oxo-1,8-diazaspiro[4.5]decane-8-carboxamide]	9.10
7.92			8.70	8.89	9.85	7.74	Cc1ncnc2ccc(-c3sc(NC(=O)N4CC5(C4)CC(C)(O)C5)nc3-c3cccc(C#N)c3)cc12 [Example 7.24, N-[4-(3-Cyanophenyl)-5-(4-methylquinazolin-6-yl)thiazol-2-yl]-6-hydroxy-6-methyl-2-azaspiro[3.3]heptane-2-carboxamide]	9.15
8.15			8.70	8.96	9.92	8.52	Cc1ncnc2ccc(-c3sc(NC(=O)N4CCC(C)(C#N)C4)nc3-c3cccc(C#N)c3)cc12 (stereo not drawn) [Example 7.25, 3-Cyano-N-[4-(3-cyanophenyl)-5-(4-methylquinazolin-6-yl)thiazol-2-yl]-3-methyl-pyrrolidine-1-carboxamide]	9.52
7.82			8.70	8.74	9.89	7.72	Cc1ncnc2ccc(-c3sc(NC(=O)N4CCC5(CC4)CN(C)C(=O)O5)nc3-c3cccc(C#N)c3)cc12 [Example 7.26, N-[4-(3-Cyanophenyl)-5-(4-methylquinazolin-6-yl)thiazol-2-yl]-3-methyl-2-oxo-1-oxa-3,8-diazaspiro[4.5]decane-8-carboxamide]	9.30
7.66			8.30	8.48	9.19	7.19	Cc1ncnc2ccc(-c3sc(NC(=O)N4CCN(C5COC5)CC4)nc3-c3cccc(C#N)c3)cc12 [Example 7.28, N-[4-(3-Cyanophenyl)-5-(4-methylquinazolin-6-yl)thiazol-2-yl]-4-(oxetan-3-yl)piperazine-1-carboxamide]	9.05

More lines, now with the values behind:

SMILES	pIC50 [1]	pKi [2]	pKi [3]	pIC50 [4]	pKi [5]	pKi [2, 6]	pKi [3, 6]	pIC50 (human PBMCs)
Cc1ncnc2ccc(-c3sc(NC(=O)N4CC5(CNCCO5)C4)nc3-c3cccc(C#N)c3)cc12 [Example 4.1, N-[4-(3-Cyanophenyl)-5-(4-methylquinazolin-6-yl)thiazol-2-yl]-5-oxa-2,8-diazaspiro[3.5]nonane-2-carboxamide]	8.10	9.85	7.38	8.70	8.96			8.74
Cc1ncnc2ccc(-c3sc(NC(=O)N4CCC(C)(C#N)CC4)nc3-c3cccc(C#N)c3)cc12 [Example 6, 4-Cyano-N-[4-(3-cyanophenyl)-5-(4-methylquinazolin-6-yl)thiazol-2-yl]-4-methyl-piperidine-1-carboxamide]	7.96			8.70	9.10	10.15	8.52	10.00
Cc1ncnc2c(C)cc(-c3sc(NC(=O)N4CC5(COC5)C4)nc3-c3cccc(C#N)c3)cc12 [Example 20, N-[4-(3-Cyanophenyl)-5-(4,8-dimethylquinazolin-6-yl)thiazol-2-yl]-2-oxa-6-azaspiro[3.3]heptane-6-carboxamide]	6.98			8.52	9.00	9.74	8.10	9.10
